This note sets out measurements from patent publication US7223728B2, “Synergistic use of thiazolidinediones with glucagon-like peptide-1 and agonists thereof to treat metabolic instability associated with non-insulin dependent diabetes” (Eli Lilly and Company, priority 1999, dated 2007).

The subject of this data set is Zucker Diabetic Fatty (ZDF) rats. Nature of the data set: Seven-week co-administration study of TZD 300512 and IP^7-GLP-1 (7–37)OH in diabetic rats (heart weight, blood glucose, insulin). The data set is classed as in vivo, rat. From the text: This study was designed to evaluate the effects of using a combination of sub-optimal doses of a TZD and a GLP-1 agonist on glucose metabolism and in addition, if this combination therapy would prevent occurrence of heart hypertrophy that is associated with optimal doses of TZD derivatives. Eight week old Zucker Diabetic Fatty (Genetic Models, Inc.) rats (ZDF) weighing about 350 grams were used in this study. Animals were allowed free access to water, and Purina Formulab 5008 chow. TZD 300512 was administered as 0.00006% diet admixture while IP^7-GLP-1 (7–37)OH, a GLP-1 agonist, was infused subcutaneously at a constant rate of 0.06 ug/min via implant Aztet pumps. The duration of study was seven weeks, and food consumption and body weight were monitored daily. Plasma glucose and insulin levels were measured weekly, and Glycated hemoglobin A1c was measured at the end of the study. Heart weights also were measured at the end of the study.
Table 1 summarizes final rat weight, daily food intake, plasma glucose levels, plasma insulin levels, Hbalc, and heart weight. Values were rounded off to the nearest decimal point.

Where [1] appears, read: ZDF rats, TZD 0.00006% diet admixture, IP^7 0.06 ug/min subcutaneous infusion, seven weeks.
Where [2] appears, read: ZDF rats, measured at the end of the seven-week study.

Turning to “4-imidazopropionyl-GLP-1 (7–37)OH [IP^7]”, the “Glucose (plasma glucose level)” value (ZDF rats, fed state, TZD 0.00006% diet admixture, IP^7 0.06 ug/min subcutaneous infusion, seven weeks) is 367.5 ± 58.0 mg/dL. For the same substance, under setting [1], the “Food Int (daily food intake)” value was determined as 30.4 ± 1.2 g/day, the “Insulin (plasma insulin level)” value was 13.0 ± 2.9 ng/mL and the “Weight (final rat weight)” value is 414.7 ± 7.9 g. For the same substance, under setting [2], the “Hbalc (glycated hemoglobin A1c)” value was 9.5 ± 1.0% and the Heart wt came to 1.2 ± 0.03 g. Besides, for the setting “diabetic ZDF rats, 42-day treatment period”, the “Fed state plasma-glucose level as % of control levels” value was 57.5 % of control levels. Moreover, where the note is “diabetic rats, 42-day treatment”, the “Course of plasma glucose levels over the 42-day treatment period” value is “increased”.
